Data reported in patent publication US10770169B2, “Method of providing a treatment to a subject based on a dynamic pathway map” (THE REGENTS OF THE UNIVERSITY OF CALIFORNIA, priority 2010, dated 2020).
Read-outs that look alike come from different tables or passages of the source.

Test system: panel of 55 breast cancer cell lines
Assay: Cell growth inhibition assay (Cell Titer Glo, 72 h, 9 doses; GI50, TGI, LC50)
Type: cell-based, human

CCN(CC)CCNC(=O)c1c(C)[nH]c(/C=C2\C(=O)Nc3ccc(F)cc32)c1C [Sunitinib Malate]
GI50 (Homo sapiens, 600MPE cell line, censored GI50 values, read-out: GI50 (converted)): 4.27 µM
GI50 (Homo sapiens, AU565, AU565 cell line, censored GI50 values, read-out: GI50 (converted)): 3.8 µM
GI50 (Homo sapiens, AU565, cell line AU565, read-out: GI50 (converted)): 3.8 µM
GI50 (Homo sapiens, BT-20, BT20 cell line, censored GI50 values, read-out: GI50 (converted)): 16.6 µM
GI50 (Homo sapiens, BT-20, cell line BT20, read-out: GI50 (converted)): 16.6 µM
GI50 (Homo sapiens, BT-474, BT474 cell line, censored GI50 values, read-out: GI50 (converted)): 17 µM
GI50 (Homo sapiens, BT-474, cell line BT474, read-out: GI50 (converted)): 17 µM
GI50 (Homo sapiens, BT-483, BT483 cell line, censored GI50 values, read-out: GI50 (converted)): 18.6 µM
GI50 (Homo sapiens, BT-483, cell line BT483, read-out: GI50 (converted)): 18.6 µM
GI50 (Homo sapiens, BT-549, BT549 cell line, censored GI50 values, read-out: GI50 (converted)): 5.13 µM
GI50 (Homo sapiens, BT-549, cell line BT549, read-out: GI50 (converted)): 5.13 µM
GI50 (Homo sapiens, CAMA-1, CAMA1 cell line, censored GI50 values, read-out: GI50 (converted)): 8.71 µM
GI50 (Homo sapiens, CAMA-1, cell line CAMA1, read-out: GI50 (converted)): 8.71 µM
GI50 (Homo sapiens, HCC38, HCC38 cell line, censored GI50 values, read-out: GI50 (converted)): 5.75 µM
GI50 (Homo sapiens, HCC38, cell line HCC38, read-out: GI50 (converted)): 5.75 µM
GI50 (Homo sapiens, HCC70, HCC70 cell line, censored GI50 values, read-out: GI50 (converted)): 2.51 µM
GI50 (Homo sapiens, HCC70, cell line HCC70, read-out: GI50 (converted)): 2.51 µM
GI50 (Homo sapiens, HCC202, HCC202 cell line, censored GI50 values, read-out: GI50 (converted)): 9.33 µM
GI50 (Homo sapiens, HCC202, cell line HCC202, read-out: GI50 (converted)): 9.33 µM
GI50 (Homo sapiens, HCC1143, HCC1143 cell line, censored GI50 values, read-out: GI50 (converted)): 6.92 µM
GI50 (Homo sapiens, HCC1143, cell line HCC1143, read-out: GI50 (converted)): 6.92 µM
GI50 (Homo sapiens, HCC1187, HCC1187 cell line, censored GI50 values, read-out: GI50 (converted)): 5.01 µM
GI50 (Homo sapiens, HCC1187, cell line HCC1187, read-out: GI50 (converted)): 5.01 µM
GI50 (Homo sapiens, HCC1395, HCC1395 cell line, censored GI50 values, read-out: GI50 (converted)): 4.68 µM
GI50 (Homo sapiens, HCC1395, cell line HCC1395, read-out: GI50 (converted)): 4.68 µM
GI50 (Homo sapiens, HCC1419, HCC1419 cell line, censored GI50 values, read-out: GI50 (converted)): 17.8 µM
GI50 (Homo sapiens, HCC1419, cell line HCC1419, read-out: GI50 (converted)): 17.8 µM
GI50 (Homo sapiens, HCC1428, HCC1428 cell line, censored GI50 values, read-out: GI50 (converted)): 5.13 µM
GI50 (Homo sapiens, HCC1428, cell line HCC1428, read-out: GI50 (converted)): 5.13 µM
GI50 (Homo sapiens, HCC1500, HCC1500 cell line, censored GI50 values, read-out: GI50 (converted)): 6.46 µM
GI50 (Homo sapiens, HCC1500, cell line HCC1500, read-out: GI50 (converted)): 6.46 µM
GI50 (Homo sapiens, HCC1806, HCC1806 cell line, censored GI50 values, read-out: GI50 (converted)): 5.37 µM
GI50 (Homo sapiens, HCC1806, cell line HCC1806, read-out: GI50 (converted)): 5.37 µM
GI50 (Homo sapiens, HCC1937, HCC1937 cell line, censored GI50 values, read-out: GI50 (converted)): 6.92 µM
GI50 (Homo sapiens, HCC1937, cell line HCC1937, read-out: GI50 (converted)): 6.92 µM
GI50 (Homo sapiens, HCC1954, HCC1954 cell line, censored GI50 values, read-out: GI50 (converted)): 5.62 µM
GI50 (Homo sapiens, HCC1954, cell line HCC1954, read-out: GI50 (converted)): 5.62 µM
GI50 (Homo sapiens, HCC2185 cell line, censored GI50 values, read-out: GI50 (converted)): 20.4 µM
GI50 (Homo sapiens, HCC3153 cell line, censored GI50 values, read-out: GI50 (converted)): 11 µM
GI50 (Homo sapiens, LY2 cell line, censored GI50 values, read-out: GI50 (converted)): 6.46 µM
GI50 (Homo sapiens, MCF7, MCF7 cell line, censored GI50 values, read-out: GI50 (converted)): 5.89 µM
GI50 (Homo sapiens, MCF7, cell line MCF7, read-out: GI50 (converted)): 5.89 µM
GI50 (Homo sapiens, MDA-MB-134-VI, MDAMB134VI cell line, censored GI50 values, read-out: GI50 (converted)): 10.7 µM
GI50 (Homo sapiens, MDA-MB-157, MDAMB157 cell line, censored GI50 values, read-out: GI50 (converted)): 6.31 µM
GI50 (Homo sapiens, MDA-MB-175-VII, MDAMB175VII cell line, censored GI50 values, read-out: GI50 (converted)): 5.5 µM
GI50 (Homo sapiens, MDA-MB-231, MDAMB231 cell line, censored GI50 values, read-out: GI50 (converted)): 3.63 µM
GI50 (Homo sapiens, MDA-MB-361, MDAMB361 cell line, censored GI50 values, read-out: GI50 (converted)): 11.7 µM
GI50 (Homo sapiens, MDA-MB-415, MDAMB415 cell line, censored GI50 values, read-out: GI50 (converted)): 5.62 µM
GI50 (Homo sapiens, MDA-MB-436, MDAMB436 cell line, censored GI50 values, read-out: GI50 (converted)): 11.2 µM
GI50 (Homo sapiens, MDA-MB-453, MDAMB453 cell line, censored GI50 values, read-out: GI50 (converted)): 4.17 µM
GI50 (Homo sapiens, MDA-MB-468, MDAMB468 cell line, censored GI50 values, read-out: GI50 (converted)): 4.47 µM
GI50 (Homo sapiens, SK-BR-3, SKBR3 cell line, censored GI50 values, read-out: GI50 (converted)): 6.76 µM
GI50 (Homo sapiens, SUM52PE, SUM52PE cell line, censored GI50 values, read-out: GI50 (converted)): 1.15 µM
GI50 (Homo sapiens, SUM149PT, SUM149PT cell line, censored GI50 values, read-out: GI50 (converted)): 2.69 µM
GI50 (Homo sapiens, SUM185PE, SUM185PE cell line, censored GI50 values, read-out: GI50 (converted)): 1.05 µM
GI50 (Homo sapiens, SUM225CWN, SUM225CWN cell line, censored GI50 values, read-out: GI50 (converted)): 6.31 µM
GI50 (Homo sapiens, SUM1315MO2, SUM1315MO2 cell line, censored GI50 values, read-out: GI50 (converted)): 7.41 µM
GI50 (Homo sapiens, SUM-159-PT, SUM159PT cell line, censored GI50 values, read-out: GI50 (converted)): 1.55 µM
GI50 (Homo sapiens, T47D, T47D cell line, censored GI50 values, read-out: GI50 (converted)): 8.32 µM
GI50 (Homo sapiens, UACC-893, UACC893 cell line, censored GI50 values, read-out: GI50 (converted)): 0.871 µM
GI50 (Homo sapiens, ZR-75-1, ZR751 cell line, censored GI50 values, read-out: GI50 (converted)): 13.2 µM
GI50 (Homo sapiens, ZR-75B, ZR75B cell line, censored GI50 values, read-out: GI50 (converted)): 7.59 µM
GI50 (Homo sapiens, cell line 600MPE, read-out: GI50 (converted)): 4.27 µM
GI50 (Homo sapiens, cell line HCC2185, read-out: GI50 (converted)): 20.4 µM
GI50 (Homo sapiens, cell line HCC3153, read-out: GI50 (converted)): 11 µM
GI50 (Homo sapiens, cell line LY2, read-out: GI50 (converted)): 6.46 µM

CNC(=O)c1c(F)cccc1Nc1nc(Nc2cc3c(cc2OC)CCN3C(=O)CN(C)C)nc2[nH]ccc12 [GSK1838705A]
GI50 (600MPE cell line, censored GI50 values, value is the negative log10 of mol/L): 6.49
GI50 (AU565 cell line, censored GI50 values, value is the negative log10 of mol/L): 5.63
GI50 (BT20 cell line, censored GI50 values, value is the negative log10 of mol/L): 4.63
GI50 (BT474 cell line, censored GI50 values, value is the negative log10 of mol/L): 5.08
GI50 (BT483 cell line, censored GI50 values, value is the negative log10 of mol/L): 5.52
GI50 (BT549 cell line, censored GI50 values, value is the negative log10 of mol/L): 5.21
GI50 (CAMA1 cell line, censored GI50 values, value is the negative log10 of mol/L): 5.05
GI50 (HCC38 cell line, censored GI50 values, value is the negative log10 of mol/L): 5.00
GI50 (HCC70 cell line, censored GI50 values, value is the negative log10 of mol/L): 5.18
GI50 (HCC202 cell line, censored GI50 values, value is the negative log10 of mol/L): 5.11
GI50 (HCC1143 cell line, censored GI50 values, value is the negative log10 of mol/L): 5.55
GI50 (HCC1187 cell line, censored GI50 values, value is the negative log10 of mol/L): 5.61
GI50 (HCC1395 cell line, censored GI50 values, value is the negative log10 of mol/L): 5.28
GI50 (HCC1419 cell line, censored GI50 values, value is the negative log10 of mol/L): 5.21
GI50 (HCC1428 cell line, censored GI50 values, value is the negative log10 of mol/L): 5.79
GI50 (HCC1500 cell line, censored GI50 values, value is the negative log10 of mol/L): 5.02
GI50 (HCC1806 cell line, censored GI50 values, value is the negative log10 of mol/L): 4.27
GI50 (HCC1937 cell line, censored GI50 values, value is the negative log10 of mol/L): 4.71
GI50 (HCC1954 cell line, censored GI50 values, value is the negative log10 of mol/L): 5.08
GI50 (HCC2185 cell line, censored GI50 values, value is the negative log10 of mol/L): 5.54
GI50 (HCC3153 cell line, censored GI50 values, value is the negative log10 of mol/L): 5.26
GI50 (LY2 cell line, censored GI50 values, value is the negative log10 of mol/L): 6.26
GI50 (MCF7 cell line, censored GI50 values, value is the negative log10 of mol/L): 5.89
GI50 (MDAMB134VI cell line, censored GI50 values, value is the negative log10 of mol/L): 5.06
GI50 (MDAMB157 cell line, censored GI50 values, value is the negative log10 of mol/L): 5.05
GI50 (MDAMB175VII cell line, censored GI50 values, value is the negative log10 of mol/L): 5.30
GI50 (MDAMB231 cell line, censored GI50 values, value is the negative log10 of mol/L): 5.28
GI50 (MDAMB361 cell line, censored GI50 values, value is the negative log10 of mol/L): 5.04
GI50 (MDAMB415 cell line, censored GI50 values, value is the negative log10 of mol/L): 5.37
GI50 (MDAMB436 cell line, censored GI50 values, value is the negative log10 of mol/L): 5.00
GI50 (MDAMB453 cell line, censored GI50 values, value is the negative log10 of mol/L): 5.07
GI50 (MDAMB468 cell line, censored GI50 values, value is the negative log10 of mol/L): 5.29
GI50 (SKBR3 cell line, censored GI50 values, value is the negative log10 of mol/L): 5.16
GI50 (SUM149PT cell line, censored GI50 values, value is the negative log10 of mol/L): 5.41
GI50 (SUM159PT cell line, censored GI50 values, value is the negative log10 of mol/L): 5.46
GI50 (SUM185PE cell line, censored GI50 values, value is the negative log10 of mol/L): 5.48
GI50 (SUM225CWN cell line, censored GI50 values, value is the negative log10 of mol/L): 4.89
GI50 (SUM1315MO2 cell line, censored GI50 values, value is the negative log10 of mol/L): 5.33
GI50 (cell line 600MPE, value is the negative log10 of mol/L): 6.49
GI50 (cell line AU565, value is the negative log10 of mol/L): 5.63
GI50 (cell line BT20, value is the negative log10 of mol/L): 4.63
